Laboratory results from patent publication US7718808B2, “Thiazole derivatives” (Kyowa Hakko Kirin Co., Ltd., priority 2003, dated 2010).

Row | Structure (SMILES) | melting point
1 | N#Cc1cccc(C(=O)Nc2nc(-c3ccco3)c(C(=O)c3ccccn3)s2)c1 [Compound 205, 3-Cyano-N-[4-(2-furyl)-5-(pyridin-2-ylcarbonyl)thiazol-2-yl]benzamide] | 234 to 237 °C
2 | CC(=O)c1cccc(C(=O)Nc2nc(-c3ccco3)c(C(=O)c3ccccn3)s2)c1 [Compound 207, 3-Acetyl-N-[4-(2-furyl)-5-(pyridin-2-ylcarbonyl)thiazol-2-yl]benzamide] | 168 to 169 °C
3 | CC(=O)c1ccc(C(=O)Nc2nc(-c3ccco3)c(C(=O)c3ccccn3)s2)cc1 [Compound 208, 4-Acetyl-N-[4-(2-furyl)-5-(pyridin-2-ylcarbonyl)thiazol-2-yl]benzamide] | 204 to 206 °C
4 | O=C(Nc1nc(-c2ccco2)c(C(=O)c2ccccn2)s1)c1ccc2c(c1)OCCO2 [Compound 210, N-[4-(2-Furyl)-5-(pyridin-2-ylcarbonyl)thiazol-2-yl]-1,4-benzodioxane-6-carboxamide] | 189 to 191 °C
5 | O=C(c1ccccn1)c1sc(NC(=O)C2COc3ccccc3O2)nc1-c1ccco1 (stereo not drawn) [Compound 211, N-[4-(2-Furyl)-5-(pyridin-2-ylcarbonyl)thiazol-2-yl]-1,4-benzodioxane-2-carboxamide] | 103 to 104 °C
6 | Cc1cc(C(=O)Nc2nc(-c3ccco3)c(C(=O)c3ccccn3)s2)ccn1 [Compound 212, N-[4-(2-Furyl)-5-(pyridin-2-ylcarbonyl)thiazol-2-yl]-2-methylpyridine-4-carboxamide] | 187 to 188 °C
7 | O=C(Nc1nc(-c2ccco2)c(C(=O)c2ccccn2)s1)c1ccncc1Cl [Compound 215, 3-Chloro-N-[4-(2-furyl)-5-(pyridin-2-ylcarbonyl)thiazol-2-yl]pyridine-4-carboxamide] | 206 to 207 °C
8 | O=C(Nc1nc(-c2ccco2)c(C(=O)c2ccccn2)s1)c1cc(Cl)nc(Cl)c1 [Compound 216, 2,6-Dichloro-N-[4-(2-furyl)-5-(pyridin-2-ylcarbonyl)thiazol-2-yl]pyridine-4-carboxamide] | 254 to 258 °C
9 | COCCN(C)c1cc(C(=O)Nc2nc(-c3ccco3)c(C(=O)c3ccccn3)s2)ccn1 [Compound 217, N-[4-(2-Furyl)-5-(pyridin-2-ylcarbonyl)thiazol-2-yl]-2-[N-(2-methoxyethyl)-N-methylamino]pyridine-4-carboxamide] | 114 to 117 °C
10 | O=C(Nc1nc(-c2ccco2)c(C(=O)c2ccccn2)s1)c1ccnc(N2CCCCC2)c1 [Compound 218, N-[4-(2-Furyl)-5-(pyridin-2-ylcarbonyl)thiazol-2-yl]-2-piperidinopyridine-4-carboxamide] | 136 to 141 °C
11 | O=C(Nc1nc(-c2ccco2)c(C(=O)c2ccccn2)s1)c1ccnc(N2CCOCC2)c1 [Compound 219, N-[4-(2-Furyl)-5-(pyridin-2-ylcarbonyl)thiazol-2-yl]-2-morpholinopyridine-4-carboxamide] | 216 to 217 °C
12 | Cc1ncccc1C(=O)Nc1nc(-c2ccco2)c(C(=O)c2ccccn2)s1 [Compound 221, N-[4-(2-Furyl)-5-(pyridin-2-ylcarbonyl)thiazol-2-yl]-2-methylpyridine-3-carboxamide] | 186 to 187 °C
13 | Cc1ccc(C(=O)Nc2nc(-c3ccco3)c(C(=O)c3ccccn3)s2)cn1 [Compound 222, N-[4-(2-Furyl)-5-(pyridin-2-ylcarbonyl)thiazol-2-yl]-2-methylpyridine-5-carboxamide] | 210 to 215 °C
14 | Cc1cncc(C(=O)Nc2nc(-c3ccco3)c(C(=O)c3ccccn3)s2)c1 [Compound 223, N-[4-(2-Furyl)-5-(pyridine-2-ylcarbonyl)thiazol-2-yl]-5-methylpyridine-3-carboxamide] | 245 to 248 °C
15 | COc1ccc(C(=O)Nc2nc(-c3ccco3)c(C(=O)c3ccccn3)s2)c(OC)n1 [Compound 224, N-[4-(2-Furyl)-5-(pyridin-2-ylcarbonyl)thiazol-2-yl]-2,6-dimethoxypyridine-3-carboxamide] | 201 to 202 °C
16 | O=C(Nc1nc(-c2ccco2)c(C(=O)c2ccccn2)s1)c1cncc(Br)c1 [Compound 226, 5-Bromo-N-[4-(2-furyl)-5-(pyridin-2-ylcarbonyl)thiazol-2-yl]pyridine-3-carboxamide] | 259 to 262 °C

More lines, now with the values ahead:

Row | melting point | Structure (SMILES)
17 | 165 to 166 °C | COc1cccc(C(=O)Nc2nc(-c3ccco3)c(C(=O)c3ccccn3)s2)c1 [Compound 201, N-[4-(2-Furyl)-5-(pyridin-2-ylcarbonyl)thiazol-2-yl]-3-methoxybenzamide]
18 | 187 to 188 °C | COc1ccc(C(=O)Nc2nc(-c3ccco3)c(C(=O)c3ccccn3)s2)cc1 [Compound 202, N-[4-(2-Furyl)-5-(pyridin-2-ylcarbonyl)thiazol-2-yl]-4-methoxybenzamide]
19 | 169 to 170 °C | COc1ccc(C(=O)Nc2nc(-c3ccco3)c(C(=O)c3ccccn3)s2)cc1OC [Compound 203, N-[4-(2-Furyl)-5-(pyridin-2-ylcarbonyl)thiazol-2-yl]-3,4-dimethoxybenzamide]
20 | 172 to 180 °C (dec.) | COc1cc(C(=O)Nc2nc(-c3ccco3)c(C(=O)c3ccccn3)s2)cc(OC)c1OC [Compound 204, N-[4-(2-Furyl)-5-(pyridin-2-ylcarbonyl)thiazol-2-yl]-3,4,5-trimethoxybenzamide]
21 | 235 to 236 °C | O=C(Nc1nc(-c2ccco2)c(C(=O)c2ccccn2)s1)c1ccc2c(c1)OCO2 [Compound 209, N-[4-(2-Furyl)-5-(pyridin-2-ylcarbonyl)thiazol-2-yl]-3,4-methylenedioxybenzamide]
22 | 219 to 225 °C | O=C(Nc1nc(-c2ccco2)c(C(=O)c2ccccn2)s1)c1ccnc(Cl)c1 [Compound 214, 2-Chloro-N-[4-(2-furyl)-5-(pyridin-2-ylcarbonyl)thiazol-2-yl]pyridine-4-carboxamide]
23 | 270 to 274 °C | O=C(Nc1nc(-c2ccco2)c(C(=O)c2ccccn2)s1)c1ccnnc1 [Compound 227, N-[4-(2-Furyl)-5-(pyridin-2-ylcarbonyl)thiazol-2-yl]pyridazine-4-carboxamide]
24 | 150 to 154 °C | O=C(Nc1nc(-c2ccco2)c(C(=O)c2ccccn2)s1)c1cnc(C2CC2)nc1 [Compound 229, 2-Cyclopropyl-N-[4-(2-furyl)-5-(pyridin-2-ylcarbonyl)thiazol-2-yl]pyrimidine-5-carboxamide]
25 | 208 to 209 °C | Cc1cnc(C(=O)Nc2nc(-c3ccco3)c(C(=O)c3ccccn3)s2)cn1 [Compound 230, N-[4-(2-Furyl)-5-(pyridine-2-ylcarbonyl)thiazol-2-yl]-5-methylpyrazine-2-carboxamide]
26 | 170 to 180 °C (dec.) | O=C(Nc1nc(-c2ccco2)c(C(=O)c2ccccn2)s1)c1cc[nH]c(=O)c1 [Compound 231, N-[4-(2-Furyl)-5-(pyridin-2-ylcarbonyl)thiazol-2-yl]-2-oxo-1,2-dihydropyridine-4-carboxamide]
27 | 269 to 270 °C | O=C(Nc1nc(-c2ccco2)c(C(=O)c2ccccn2)s1)c1ccn(Cc2ccccc2)c(=O)c1 [Compound 232, 1-Benzyl-N-[4-(2-furyl)-5-(pyridin-2-ylcarbonyl)thiazol-2-yl]-2-oxo-1,2-dihydropyridine-4-carboxamide]
